Converted amounts (≈) assume the structure as drawn.
Columns and labels:
[1] = Permeability in concentric nested donor/receiver arrangement with PAMPA membrane; type: in vitro ADME; settings: in situ UV fiber optic, read-out: Peff (effective permeability coefficient)
Procedure: A concentric nested arrangement was used to study permeability of several compounds. The membrane was a PAMPA membrane and experiments were performed with and without Acceptor Sink Buffer™ on the acceptor sink side. Concentrations measurements were taken using in situ UV fiber optic system Pion Spectra™.

physchem = settings: aqueous buffer
Procedure: In the case of buccal drug delivery, the donor chamber represented the oral cavity, the artificial membrane the oral mucosa, while the acceptor chamber represented the blood circulation. At first 75 mL of n-dodecane was dribbled on the membrane surface, then 20 mL of pH 6.8 phosphate buffer was added into the donor chamber, and 20 mL of sink buffer was added into the acceptor chamber. […] Both chambers were stirred at 200 rpm at room temperature, using stirring devices 87 and 89. The temperature was controlled via elements 91. In both chambers the API concentration was followed by UV-spectrophotometry at 252 nm. Suitable probes for the spectroscopic measurements (not shown in FIG. 12) were introduced through openings 93 and 95.
The in vitro dissolution-absorption studies were carried out using a μFLUX™ (Pion Inc., Billerica Mass., U.S.A.), a schematic diagram of which is shown in FIG. 12. The apparatus included a donor and an acceptor chamber (20 mL volume) separated by an artificial membrane (PVDF, polyvinylidenefluoride, 0.45 μm, 1.54 cm^2). In the case of oral drug delivery, the donor chamber represents the gastrointestinal tract, while the acceptor chamber represents the blood circulation. […]

[2] = In vitro dissolution-permeation of aripiprazole forms on μFLUX; type: in vitro ADME
Procedure: In the case of buccal drug delivery, the donor chamber represented the oral cavity, the artificial membrane the oral mucosa, while the acceptor chamber represented the blood circulation. At first […] of n-dodecane was dribbled on the membrane surface, then 20 mL of pH 6.8 phosphate buffer was added into the donor chamber, and 20 mL of sink buffer was added into the acceptor chamber. […] Samples equivalent to 20 mg of ARP were placed in the donor chamber. Both chambers were stirred at 200 rpm at room temperature, using stirring devices 87 and 89. The temperature was controlled via elements 91. In both chambers the API concentration was followed by UV-spectrophotometry at 252 nm. Suitable probes for the spectroscopic measurements (not shown in FIG. 12) were introduced through openings 93 and 95.
The flux across the membrane was calculated using the following equation:
[formula] where the flux (J) of a drug through the membrane is defined as the amount (n) of drug crossing a unit area (A) perpendicular to its flow per unit time (t).
The API concentration profiles in the donor and acceptor vessels (1000 mg/L max concentration, 0.025 mol/dm^3 KH2PO4 buffer in the donor compartment, n-dodecane membrane, sink buffer as acceptor, 150 rpm, 25° C.) are presented, respectively, in FIGS. 13A and 13B.

Row | SMILES | Papp [1] | solubility (physchem) | API dissolved during the biorelevant time ([2]; 30-60 min, donor chamber) | flux during the first 25 min ([2]; n-dodecane membrane, sink buffer acceptor)
1 | CC(=O)Oc1ccccc1C(=O)O [Aspirin] | 331 ×10⁻⁶ cm/s |  |  | 
2 | Cn1c(=O)c2c(ncn2C)n(C)c1=O [Caffeine] | 257 ×10⁻⁶ cm/s |  |  | 
3 | O=C1CCc2ccc(OCCCCN3CCN(c4cccc(Cl)c4Cl)CC3)cc2N1 [ARP, aripiprazole] |  | 30 µg/mL (≈ 66.9 µM) | 1.5% | 16 μg/h×cm^2

Reference: patent publication US10228358B2, “Apparatus and method for the assessment of concentration profiling and permeability rates” (Pion Inc., priority 2015, dated 2019)
